Source: patent US20260240846A1, “ZAK ALPHA KINASE (MAP3K20) INHIBITORS FOR USE IN THE TREATMENT OF ANEMIA” (UNIVERSIDAD DE MURCIA, priority 2023, published 2026)

Tests used:
[1] = test system: K562 cells; test: Erythroid differentiation assay in K562 cells (hemin; hemoglobin accumulation, western blot); type: cell-based, human
Protocol: FIG. 1. ZAKα/P38 signaling pathway is activated in K562 after erythroid differentiation and its inhibition facilitates terminal erythroid differentiation. K562 cells were pre-treated with 0.1 μM nilotinib (Nil) (A, C, D), 1 μM anisomycin (B) and/or the indicated concentrations of the […] CX-5461 for 24 h, and then differentiated with 50 μM hemin for another 24 h. Hemoglobin accumulation (A, B, D) and NLRP1, phosphorylated P38, GATA1, ZAKα and ACTB (A-C) amounts were then evaluated by western blot. Immunoblots are representative of 3 independent experiments. #1, ACTB; #2, GATA1.
FIG. 2. The ZAKα/P38 signaling pathways is activated in K562 after erythroid differentiation. K562 cells were pre-treated with 0.1 μM nilotinib for 24 h and then differentiated with 50 μM hemin for the indicated times. The amounts of NLRP1, GATA1, phosphorylated P38, total ZAKα, phosphorylated ZAKα (Phos-tag) and ACTB were then evaluated by western blot.
(§1) FIG. 10. Imatinib and dasatinib promote erythropoiesis in human and zebrafish. (A) K562 cells were pretreated with the indicated concentrations of nilotinib, imatinib or dasatinib for 24 h and then differentiated with 50 μM hemin for 24 h. The amounts of NLRP1, GATA1, phosphorylated P38, total ZAKα and ACTB were then evaluated by western blot. (B) Zebrafish larvae were treated from 1 to 2 dpf with the indicated concentrations of nilotinib, imatinib or dasatinib. Representative images and number of neutrophils in larvae of 2 dpf treated by bath immersion with the indicated concentrations of imatinib and dasatinib. Each dot represents one individual and the mean±SEM for each group is also shown. P values were calculated by one-way ANOVA and Tukey's multiple range test. n.s., non-significant. ***P<0.001; ****P<0.0001.
(§2) FIG. 11. Ponatinib and bosutinib promote erythropoiesis in human and zebrafish. (A) K562 cells were pretreated with the indicated concentrations of nilotinib, ponatinib and bosutinib for 24 h and then differentiated with 50 μM hemin for the indicated times. The amounts of NLRP1, total ZAKα, GATA1, phosphorylated P38 and ACTB were then evaluated by western blot. (B) Number of neutrophils in larvae of 2 dpf treated by bath immersion with the indicated concentrations of ponatinib and bosutinib. Each dot represents one individual and the mean±SEM for each group is also shown. P values were calculated by one-way ANOVA and Tukey's multiple range test. n.s., non-significant, *P<0.05. **P<0.01. ***P<0.001.
K562 cells (CRL-3343; American Type Culture Collection) were maintained in RPMI culture medium supplemented with 10% fetal calf serum (FCS), 2 mM Glutamine, and 1% penicillin-streptomycin (Life Technologies). Cells were maintained and subcultured before confluence every 72 h. For differentiation, cells were treated with 50 μM hemin (#16009-13-5, Sigma-Aldrich) in the presence of 0.1% DMSO alone or with the caspase-1 inhibitor VX-765 (100 μM), the tyrosine kinase inhibitor nilotinib (0.1 μM), the RNA polymerase I inhibitor CX-5461 (200 nM, 1 μM and 10 μM) (all from MedChemExpress). Cells were collected at different time points (0, 24, 48 hours post-hemin addition), centrifuged, washed twice with PBS, and stored at −80° C. for further analysis.
Cells were lysed in 50 mM Tris-HCl (pH 7.5), 150 mM NaCl, 1% (w/v) NP-40 and fresh protease inhibitor (1/20, #P8340, Sigma-Aldrich). Protein quantification was performed with the BCA kit using BSA as standard. Cell lysates ([…]) in SDS sample buffer were subjected to electrophoresis on a polyacrylamide gel and transferred to nitrocellulose membranes. The membranes were incubated for 1 h with TTBS containing 5% (w/v) skimmed dried milk powder or 2% (w/v) BSA. The membranes were immunoblotted in the same buffer 16 h at 4° C. with the different primary antibodies diluted 1/1000. The blots were then washed with TTBS and incubated for 1 h at room temperature with secondary HRP-conjugated antibodies diluted 2,500-fold in 5% (w/v) skimmed milk in TTBS. […]

[2] = test system: zebrafish larvae; test: Chemical treatment of zebrafish larvae by bath immersion; counting of neutrophils and erythrocytes; type: in vivo, Zebrafish (Danio rerio H.)
Protocol: FIG. 3. ZAKα regulates hematopoiesis in zebrafish through the Nlrp1 inflammasome. Number of neutrophils (B, D, H), erythrocytes (F) and macrophages (J), and caspase-1 activity (K) in 2 dpf larvae either treated from 1 to 2 dpf by bath immersion with 1 μM nilotinib and/or 100 μM anisomycin (A-D) or obtained by injecting one-cell stage embryos with standard or zaka crRNAs/Cas9 complexes (E-K). Representative images of neutrophils (A, C, G), erythrocytes (E) and macrophages (I) are also shown. Each dot represents one individual and the mean±SEM for each group is also shown. P values were calculated using one-way ANOVA and Tukey's multiple range test (B) or Student's t-test (D, F, H, J, K). n.s., non-significant; *P<0.05; **P<0.01; ***P<0.001.
FIG. 6. NLRP1 is activated by phosphorylation of the linker domain after activation of ZAKα and pharmacological inhibition of this signaling pathway promotes erythropoiesis in DBA. (A-D) Number of neutrophils (A-C), and caspase-1 activity (D) in 2 dpf larvae obtained by injection of one-cell stage embryos with human NLRP1 (wild type-WT, S107A and S107D) and treated from 1 to 2 dpf by bath immersion with 1 μM nilotinib (B-D). Representative images of neutrophils (arrows) are also shown in C. (E, F) BMMCs from a DBA patient were incubated for 2 weeks in human methylcellulose complete medium at 37° C. in the presence or absence of the indicated concentrations of nilotinib, and colonies were counted using standard morphological criteria. Each dot represents one individual and the mean±SEM for each group is also shown. P values were calculated by one-way ANOVA and Tukey's multiple range test. n.s., non-significant; *P<0.05; **P<0.01; ***P<0.001; ****P<0.0001.
as §1, §2
Zebrafish (Danio rerio H.) were obtained from the Zebrafish International Resource Center and mated, staged, raised and processed as described in The Zebarfish Book. The lines Tg(mpx:eGFP)^t114, Tg(lyz:DsRED2)^n250, Tg(mfap4:mCherry)^ump6, Tg(gata1a:DsRed)^sd2 Tg(runx1:GAL4)^utn6), Tg(UAS-E1B:NTR-mCherry) and casper (mitfa^w2/w2; mpv17^a9/a9) were previously described. spint1a^hi2217Tg/hi2217Tg was isolated from insertional mutagenesis screens. The experiments performed comply with the Guidelines of the European Union Council (Directive 2010/63/EU) and the Spanish RD 53/2013. The experiments and procedures performed were approved by the Bioethical Committees of the University of Murcia (approval number #669/2020). […]

[3] = test system: HSPCs from DBA patients; test: Colony assay of PBMCs from DBA patients in methylcellulose medium; type: cell-based, human; settings: 2 weeks, indicated concentrations (FIG. 13A)
Protocol: FIG. 13. […] PBMCs from DBA patients were incubated for 2 weeks in human methylcellulose complete medium at 37° C. in the presence or absence of the indicated concentrations of nilotinib, imatinib, dasatinib, bosutinib and ponatinib, and the number of erythroid (A) and myeloid (B) colonies counted using standard morphological criteria. Each dot represents one patient and the means±SEM for each group is also shown.

## Cc1cnc(CNC(=O)c2c(=O)c3ccc(N4CCCN(C)CC4)nc3n3c2sc2ccccc23)cn1 [CX-5461]
[1]; CX-5461 at indicated concentrations 24 h, then 50 μM hemin 24 h, hemoglobin accumulation (FIG. 1D)
  erythroid differentiation in K562 cells: impairs erythroid differentiation

## COc1ccc(C[C@H]2NC[C@H](O)[C@H]2OC(C)=O)cc1 [anisomycin]
[2]; larvae 2 dpf, anisomycin
  neutrophil number in Nlrp1- and Zaka-deficient larvae: failed to increase neutrophil number
[2]; wild type larvae 2 dpf, bath immersion 1 to 2 dpf, 1 μM nilotinib, 100 μM anisomycin
  neutrophil number: caused neutrophilia

## Cc1ccc(NC(=O)c2ccc(CN3CCN(C)CC3)cc2)cc1Nc1nccc(-c2cccnc2)n1 [imatinib]
[2]; bath immersion 1 to 2 dpf, imatinib 1 and 10 μM, dasatinib 0.1 and 1 μM (FIG. 10B)
  number of erythrocytes in zebrafish larvae: enhanced the number of erythrocytes
[3]
  defective erythropoiesis of HSPCs from DBA patients (erythroid colonies): alleviated defective erythropoiesis
[1]; K562 cells, indicated concentrations of TKI 24 h, then 50 μM hemin, western blot (FIG. 10A, 11A)
  GATA1 protein amounts: enhancing GATA1 amount
[1]; indicated concentrations of TKI 24 h, then 50 μM hemin (FIG. 10A, 11A)
  erythroid differentiation of K562 cells: promoted erythroid differentiation of K562 cells by blocking the ZAKα/P38 axis
